From patent US20240190879A1, “FUSED BICYCLIC COMPOUNDS USEFUL FOR MODULATING NUCLEIC ACID SPLICING” (REMIX THERAPEUTICS INC., priority 2020, published 2024)
pIC50: −log10 of the molar value.

What was measured:
Type in all cases: cell-based
Target C CJ mRNA = assay: Gene panel canonical junction qPCR assay, Target C; settings: larger gene panel; concentration having 50% response in CJ decrease; read-out: Target C IC50 (decrease in CJ mRNA levels)
Method: (§1) Compounds described herein were used to modulate RNA transcript abundance in cells. The expression of a target mRNA was measured by detecting the formation of an exon-exon junction in the canonical transcript (CJ). A compound mediated exon-inclusion event was detected by observing an increase in formation of a new junction with an alternative exon (AJ). Real-time qPCR assays were used to detect these splicing switches and interrogate the potency of various compounds towards different target genes. A high-throughput real time quantitative PCR (RT-qPCR) assay was developed to measure these two isoforms of the mRNA (CJ and AJ) for an exemplary gene, HTT, together with a control housekeeping gene, GAPDH or GUSB or PPIA, used for normalization. Briefly, the A673 or K562 cell line was treated with various compounds described herein (e.g., compounds of Formula (I)). After treatment, the levels of the HTT mRNA targets were determined from each sample of cell lysate by cDNA synthesis followed by qPCR.
(§2) The data analysis was performed by first determining the ΔCt vs the housekeeper gene. This ΔCt was then normalized against the DMSO control (ΔΔCt) and converted to RQ (relative quantification) using the 2^(−ΔΔCt) equation. The RQ were then converted to a percentage response by arbitrarily setting an assay window of 3.5 ΔCt for HTT-CJ and an assay window of 9 ΔCt for HTT-AJ. […] The percentage response was then fitted to the 4 parametric logistic equation to evaluate the concentration dependence of compound treatment. The increase in AJ mRNA is reported as AC50 (compound concentration having 50% response in AJ increase) while the decrease in CJ mRNA levels is reported as IC50 (compound concentration having 50% response in CJ decrease).
(§3) Additional studies were carried out for a larger panel of genes using the protocol provided above. The junction between flanking upstream and downstream exons was used to design canonical junction qPCR assays. At least one of the forward primer, reverse primer or the CY5-labeled 5′ nuclease probe (with 3′ quencher such as ZEN/Iowa Black FQ) was designed to overlap with the exon junction to capture the CJ mRNA transcript. BLAST was used to confirm the specificity of the probeset and parameters such as melting temperature, GC content, amplicon size, and primer dimer formation are considered during their design. Data for the decrease in CJ mRNA levels for three exemplary genes (HTT, SMN2, and Target C) analyzed in this panel are reported as IC50 (compound concentration having 50% response in CJ decrease).

[1] = test system: HTT mRNA canonical junction (CJ); assay: RT-qPCR splicing assay, HTT canonical junction (CJ) mRNA decrease; settings: A673 or K562 cell line, 24 hours treatment; concentration having 50% response in CJ mRNA decrease
Method: as §1
(§4) The A673 cell line was cultured in DMEM with 10% FBS. Cells were diluted with full growth media and plated in a 96-well plate (15,000 cells in 100 ul media per well). The plate was incubated at 37° C. with 5% CO2 for 24 hours to allow cells to adhere. An 11-point 3-fold serial dilution of the compounds was made in DMSO then diluted in media in an intermediate plate. Compounds were transferred from the intermediate plate to the cell plate with the top dose at a final concentration of 10 uM in the well. Final DMSO concentration was kept at or below 0.25%. The cell plate was returned to the incubator at 37° C. with 5% CO2 for an additional 24 hours.
(§5) The K562 cell line was cultured in IMDM with 10% FBS. For K562, cells were diluted with full growth media and plated in either a 96-well plate (50,000 cells in 50 uL media per well) or a 384-well plate (8,000-40,000 cells in 45 uL media per well). An 11-point 3-fold serial dilution of the compounds were made in DMSO then diluted in media in an intermediate plate. Compound was transferred from the intermediate plate to the cell plate with the top dose at a final concentration of 10 uM in the well. Final DMSO concentration was kept at or below 0.25%. Final volume was 100 uL for 96-well plate and 50 uL for 384-well plate. The cell plate was then placed in an incubator at 37° C. with 5% CO2 for 24 hours.
(§6) The cells were then gently washed with 50 uL-100 uL cold PBS before proceeding to addition of lysis buffer. 30 uL-50 uL of room temperature lysis buffer with DNAse I (and optionally RNAsin) was added to each well. Cells were shaken/mixed thoroughly at room temperature for 5-10 minutes for lysis to take place and then 3 uL-5 uL of room temperature stop solution was added and wells were shaken/mixed again. After 2-5 minutes, the cell lysate plate was transferred to ice for RT-qPCR reaction setup. The lysates could also be frozen at −80° C. for later use.
(§7) In some cases, a direct lysis buffer was used. An appropriate volume of 3×lysis buffer (10 mM Tris, 150 mM NaCl, 1.5%-2.5% Igepal and 0.1-1 U/uL RNAsin, pH 7.4) was directly added to either K562 or A673 cells in media and mixed by pipetting 3 times. The plates were then incubated at room temperature with shaking/rocking for 20-50 minutes to allow for lysis to take place. After this time, the cell lysate plate was transferred to ice to set up for the RT-qPCR reactions. The lysates could also be frozen at −80° C. for later use.
(§8) To set up 10 uL RT-qPCR reactions, cell lysates were transferred to 384-well qPCR plates containing the master mix according to the table below. The plates were sealed, gently vortexed, and spun down before the run. The volumes were adjusted accordingly in some instances where the reaction was carried in 20 uL. The table below summarizes the components of the RT-qPCR reactions:
(§9) The RT-qPCR reaction was performed using a QuantStudio (ThermoFisher) under the following fast cycling conditions. […]

[2] = test system: HTT mRNA alternative junction (AJ); assay: RT-qPCR splicing assay, HTT alternative junction (AJ) mRNA increase; settings: A673 or K562 cell line, 24 hours treatment; concentration having 50% response in AJ mRNA increase
Method: as §1, §4, §5, §6, §7, §8, §9

HTT CJ mRNA = assay: Gene panel canonical junction qPCR assay, HTT; settings: larger gene panel; concentration having 50% response in CJ decrease; read-out: HTT IC50 (decrease in CJ mRNA levels)
Method: as §1, §2, §3

SMN2 CJ mRNA = assay: Gene panel canonical junction qPCR assay, SMN2; settings: larger gene panel; concentration having 50% response in CJ decrease; read-out: SMN2 IC50 (decrease in CJ mRNA levels)
Method: as §1, §2, §3

| Compound | pIC50 (Target C CJ mRNA) | AC50 [1] [µM] | AC50 [2] [µM] | pIC50 (HTT CJ mRNA) | pIC50 (SMN2 CJ mRNA) |
| --- | --- | --- | --- | --- | --- |
| Cc1cn2nc(NC(=O)c3cccc4c(C5CCNCC5)cnnc34)cc(C)c2n1 [Compound 112, N-[2,8-dimethylimidazo[1,2-b]pyridazin-6-yl]-4-(piperidin-4-yl)cinnoline-8-carboxamide] | 5.00 to 6.00 | > 10 | > 10 |  |  |
| Cc1cn2cc(NC(=O)c3cccc4c(C5CCNCC5)cnnc34)cc(F)c2n1 [Compound 114, N-[8-fluoro-2-methylimidazo[1,2-a]pyridin-6-yl]-4-(piperidin-4-yl)cinnoline-8-carboxamide] |  | > 10 | > 10 |  |  |
| Cc1cn2cc(NC(=O)c3cccc4c(N(C)C5CCN(C)CC5)cnnc34)cc(F)c2n1 [Compound 213] | 5.00 to 6.00 | 1 to 10 | 1 to 10 | 5.00 to 6.00 | 5.00 to 6.00 |
| Cc1cn2cc(NC(=O)c3cccc4c(N(C)C5CC(C)(C)NC(C)(C)C5)cnnc34)cc(F)c2n1 [Compound 184, N-[8-fluoro-2-methylimidazo[1,2-a]pyridin-6-yl]-4-[methyl(2,2,6,6-tetramethylpiperidin-4-yl)amino]cinnoline-8-carboxamide] | 5.00 to 6.00 | 1 to 10 | 1 to 10 | 5.00 to 6.00 | 5.00 to 6.00 |
| COc1cc(N2CCNCC2)c2cccc(-c3cc(F)c4nc(C)cn4c3)c2n1 [Compound 138, 8-[8-fluoro-2-methylimidazo[1,2-a]pyridin-6-yl]-2-methoxy-4-(piperazin-1-yl) quinoline] | < 5.00 | > 10 | > 10 | < 5.00 | 6.00 to 7.00 |
| Cc1cn2nc(-c3cccc4c3CCC(=O)N4C3CCNCC3)cc(C)c2n1 [Compound 185] |  | 1 to 10 | > 10 | 5.00 to 6.00 | < 5.00 |
| Cc1cn2cc(NC(=O)c3cccc4c(N5CCNCC5)cnnc34)cc(F)c2n1 [Compound 113, N-[8-fluoro-2-methylimidazo[1,2-a]pyridin-6-yl]-4-(piperazin-1-yl)cinnoline-8-carboxamide] | > 7.00 | > 10 | 1 to 10 | < 5.00 | > 7.00 |
| Cc1cn2nc(NC(=O)c3cccc4c(N5CCNCC5)cnnc34)cc(C)c2n1 [Compound 111, N-[2,8-dimethylimidazo[1,2-b]pyridazin-6-yl]-4-(piperazin-1-yl)cinnoline-8-carboxamide] |  | > 10 | > 10 |  |  |
| Cc1cn2cc(-c3cccc4c(C5=CCNCC5)nncc34)nc2c(C)n1 [Compound 109, 5-[6,8-dimethylimidazo[1,2-a]pyrazin-2-yl]-1-(1,2,3,6-tetrahydropyridin-4-yl)phthalazine] | 5.00 to 6.00 | > 10 | > 10 |  |  |
| Cc1cn2nc(-c3cccc4c(N5CCNCC5)nncc34)cc(C)c2n1 [Compound 101, 5-[2,8-dimethylimidazo[1,2-b]pyridazin-6-yl]-1-(piperazin-1-yl)phthalazine] | 5.00 to 6.00 | > 10 | 1 to 10 |  |  |
| Cc1cn2cc(NC(=O)c3cccc4c(N5CCC(NC(C)(C)C)C5)cnnc34)cc(F)c2n1 (stereo not shown) [Compound 122, 4-[3-(tert-butylamino)pyrrolidin-1-yl]-N-[8-fluoro-2-methylimidazo[1,2-a]pyridin-6-yl]cinnoline-8-carboxamide] |  | > 10 | > 10 |  |  |
| COc1cc(N2CCNCC2)c2cccc(-c3cc(C)c4nc(C)cn4n3)c2n1 [Compound 134, 8-[2,8-dimethylimidazo[1,2-b]pyridazin-6-yl]-2-methoxy-4-(piperazin-1-yl) quinoline] | 5.00 to 6.00 | 1 to 10 | 1 to 10 |  |  |
| Cc1cn2nc(-c3cccc4c(C5CCNCC5)nncc34)cc(C)c2n1 [Compound 104, 5-[2,8-dimethylimidazo[1,2-b]pyridazin-6-yl]-1-(piperidin-4-yl)phthalazine] |  |  | > 10 |  |  |
| Cc1cn2cc(-c3cccc4c(N5CCNCC5)nncc34)nc2c(C)n1 [Compound 100, 5-[6,8-dimethylimidazo[1,2-a]pyrazin-2-yl]-1-(piperazin-1-yl)phthalazine] |  | > 10 | > 10 |  |  |
| Cc1cn2cc(-c3cccc4c(N5CCCCC5)nncc34)nc2c(C)n1 [Compound 108, 5-[6,8-dimethylimidazo[1,2-a]pyrazin-2-yl]-1-(piperidin-1-yl)phthalazine] | 5.00 to 6.00 | > 10 | > 10 |  |  |
| c1cc(-c2cn[nH]c2)c2cnnc(N3CCNCC3)c2c1 [Compound 102, 1-(piperazin-1-yl)-5-(1H-pyrazol-4-yl)phthalazine] |  | > 10 | > 10 | < 5.00 | < 5.00 |
